From patent publication US9695155B2, “Herbicidal substituted pyrimidinyloxy benzene compounds” (E. I. DU PONT DE NEMOURS AND COMPANY, priority 2013, dated 2017)

What was measured:
Assay in all cases: Test C preemergence
giant foxtail = format: in vivo, Setaria faberii; conditions: Setaria faberi, pre-emergence
Description: (§1) Seeds of plant species selected from blackgrass (Alopecurus myosuroides), Italian ryegrass (Lolium multiflorum), wheat, winter (winter wheat, Triticum aestivum), galium (catchweed bedstraw, Galium aparine), corn (Zea mays), large (Lg) crabgrass (Digitaria sanguinalis), giant foxtail (Setaria faberii), johnsongrass (Sorghum halepense), lambsquarters (Chenopodium album), morningglory (Ipomoea coccinea), yellow nutsedge (Cyperus esculentus), pigweed (Amaranthus retroflexus), ragweed (common ragweed, Ambrosia elatior), soybean (Glycine max), barnyardgrass (Echinochloa crus-galli), oilseed rape (Brassica napus), waterhemp (common waterhemp, Amaranthus rudis), kochia (Kochia scoparia), wild oat (Avena fatua), surinam grass (Brachiaria decumbens), foxtail, green (green foxtail, Setaria viridis), goosegrass (Eleusine indica), bromegrass, downy (downy bromegrass, Bromus tectorum), nightshade (eastern black nightshade, Solanum ptycanthum), cocklebur (common cocklebur, Xanthium strumarium), cupgrass, woolly (woolly cupgrass, Eriochloa villosa), bermudagrass (Cynodon dactylon), sunflower, (common oilseed sunflower, Helianthus annuus), Russian thistle (Salsola kali), and velvetleaf (Abutilon theophrasti) were planted into a blend of loam soil and sand and treated preemergence with test chemicals formulated in a non-phytotoxic solvent mixture which included a surfactant.
(§2) At the same time, plants selected from these crop and weed species and also barley, winter (winter barley, Hordeum vulgare), windgrass (Apera spica-venti), chickweed (common chickweed, Stellaria media), deadnettle (henbit deadnettle, Lamium amplexicaule), and canarygrass (littleseed canarygrass, Phalaris minor) were planted in pots containing Redi-Earth® planting medium (Scotts Company, 14111 Scottslawn Road, Marysville, Ohio 43041) comprising spaghnum peat moss, vermiculite, wetting agent and starter nutrients and treated with postemergence applications of test chemicals formulated in the same manner. Plants ranged in height from 2 to 18 cm (1- to 4-leaf stage) for postemergence treatments. Treated plants and controls were maintained in a greenhouse for 13 to 15 days, after which time all species were compared to controls and visually evaluated. Plant response ratings, summarized in Table C, are based on a scale of 0 to 100 where 0 is no effect and 100 is complete control. A dash (-) response means no test result.

lambsquarters = format: in vivo, Chenopodium album; conditions: Chenopodium album, pre-emergence
Description: as §1, §2

galium = format: in vivo, Galium aparine; conditions: Galium, pre-emergence
Description: as §1, §2

waterhemp = format: in vivo, Amaranthus rudis; conditions: Amaranthus tuberculatus, pre-emergence
Description: as §1, §2

velvetleaf = format: in vivo, Abutilon theophrasti; conditions: Abutilon theophrasti, pre-emergence
Description: as §1, §2

ragweed = format: in vivo, Ambrosia elatior; conditions: Ambrosia artemisiifolia, pre-emergence
Description: as §1, §2

barnyardgrass = format: in vivo, Echinochloa crus-galli; conditions: Echinochloa crus-galli, pre-emergence
Description: as §1, §2

morningglory = format: in vivo, Ipomoea coccinea; conditions: Ipomoea, pre-emergence
Description: as §1, §2

large (Lg) crabgrass = format: in vivo, Digitaria sanguinalis; conditions: Digitaria sanguinalis, pre-emergence
Description: as §1, §2

blackgrass = format: in vivo, Alopecurus myosuroides; conditions: Alopecurus myosuroides, pre-emergence, preemergence, scale 0 (no effect) to 100 (complete control), read-out: Blackgrass plant response rating
Description: as §1, §2

oilseed rape = format: in vivo, Brassica napus; conditions: Brassica napus, pre-emergence
Description: as §1, §2

pigweed = format: in vivo, Amaranthus retroflexus; conditions: Amaranthus retroflexus, pre-emergence
Description: as §1, §2

soybean = format: in vivo, Glycine max; conditions: Glycine max, pre-emergence
Description: as §1, §2

N#Cc1cccc(Oc2ncc(Cl)cn2)c1-n1cc(Br)cn1 [Compound 52, 2-(4-bromo-1H-pyrazol-1-yl)-3-[(5-chloro-2-pyrimidinyl)oxy]benzonitrile]
pest or weed control at 62 g/ha (giant foxtail; 62 g ai/ha, preemergence, scale 0 (no effect) to 100 (complete control), read-out: Foxtail, Giant plant response rating): 100%
pest or weed control at 125 g/ha (giant foxtail; 125 g ai/ha, preemergence, scale 0 (no effect) to 100 (complete control), read-out: Foxtail, Giant plant response rating): 100%
pest or weed control at 250 g/ha (giant foxtail; 250 g ai/ha, preemergence, scale 0 (no effect) to 100 (complete control), read-out: Foxtail, Giant plant response rating): 100%
pest or weed control at 31 g/ha (giant foxtail; Preemergence, 31 g ai/ha, scale 0 to 100, 0 no effect, 100 complete control, read-out: Plant response rating, Foxtail, Giant): 100%
pest or weed control at 62 g/ha (lambsquarters; 62 g ai/ha, preemergence, scale 0 (no effect) to 100 (complete control), read-out: Lambsquarters plant response rating): 100%
pest or weed control at 125 g/ha (lambsquarters; 125 g ai/ha, preemergence, scale 0 (no effect) to 100 (complete control), read-out: Lambsquarters plant response rating): 100%
pest or weed control at 250 g/ha (lambsquarters; 250 g ai/ha, preemergence, scale 0 (no effect) to 100 (complete control), read-out: Lambsquarters plant response rating): 100%
pest or weed control at 31 g/ha (lambsquarters; Preemergence, 31 g ai/ha, scale 0 to 100, 0 no effect, 100 complete control, read-out: Plant response rating, Lambsquarters): 100%
pest or weed control at 62 g/ha (galium; 62 g ai/ha, preemergence, scale 0 (no effect) to 100 (complete control), read-out: Galium plant response rating): 100%
pest or weed control at 125 g/ha (galium; 125 g ai/ha, preemergence, scale 0 (no effect) to 100 (complete control), read-out: Galium plant response rating): 100%
pest or weed control at 250 g/ha (galium; 250 g ai/ha, preemergence, scale 0 (no effect) to 100 (complete control), read-out: Galium plant response rating): 100%
pest or weed control at 31 g/ha (galium; Preemergence, 31 g ai/ha, scale 0 to 100, 0 no effect, 100 complete control, read-out: Plant response rating, Galium): 100%
pest or weed control at 62 g/ha (waterhemp; 62 g ai/ha, preemergence, scale 0 (no effect) to 100 (complete control), read-out: Waterhemp plant response rating): 100%
pest or weed control at 125 g/ha (waterhemp; 125 g ai/ha, preemergence, scale 0 (no effect) to 100 (complete control), read-out: Waterhemp plant response rating): 100%
pest or weed control at 250 g/ha (waterhemp; 250 g ai/ha, preemergence, scale 0 (no effect) to 100 (complete control), read-out: Waterhemp plant response rating): 100%
pest or weed control at 31 g/ha (waterhemp; Preemergence, 31 g ai/ha, scale 0 to 100, 0 no effect, 100 complete control, read-out: Plant response rating, Waterhemp): 100%
pest or weed control at 62 g/ha (velvetleaf; 62 g ai/ha, preemergence, scale 0 (no effect) to 100 (complete control), read-out: Velvetleaf plant response rating): 100%
pest or weed control at 125 g/ha (velvetleaf; 125 g ai/ha, preemergence, scale 0 (no effect) to 100 (complete control), read-out: Velvetleaf plant response rating): 100%
pest or weed control at 250 g/ha (velvetleaf; 250 g ai/ha, preemergence, scale 0 (no effect) to 100 (complete control), read-out: Velvetleaf plant response rating): 100%
pest or weed control at 31 g/ha (velvetleaf; Preemergence, 31 g ai/ha, scale 0 to 100, 0 no effect, 100 complete control, read-out: Plant response rating, Velvetleaf): 75%
pest or weed control at 62 g/ha (ragweed; 62 g ai/ha, preemergence, scale 0 (no effect) to 100 (complete control), read-out: Ragweed plant response rating): 90%
pest or weed control at 125 g/ha (ragweed; 125 g ai/ha, preemergence, scale 0 (no effect) to 100 (complete control), read-out: Ragweed plant response rating): 95%
pest or weed control at 250 g/ha (ragweed; 250 g ai/ha, preemergence, scale 0 (no effect) to 100 (complete control), read-out: Ragweed plant response rating): 100%
pest or weed control at 31 g/ha (ragweed; Preemergence, 31 g ai/ha, scale 0 to 100, 0 no effect, 100 complete control, read-out: Plant response rating, Ragweed): 90%
pest or weed control at 62 g/ha (barnyardgrass; 62 g ai/ha, preemergence, scale 0 (no effect) to 100 (complete control), read-out: Barnyardgrass plant response rating): 95%
pest or weed control at 125 g/ha (barnyardgrass; 125 g ai/ha, preemergence, scale 0 (no effect) to 100 (complete control), read-out: Barnyardgrass plant response rating): 100%
pest or weed control at 250 g/ha (barnyardgrass; 250 g ai/ha, preemergence, scale 0 (no effect) to 100 (complete control), read-out: Barnyardgrass plant response rating): 100%
pest or weed control at 31 g/ha (barnyardgrass; Preemergence, 31 g ai/ha, scale 0 to 100, 0 no effect, 100 complete control, read-out: Plant response rating, Barnyardgrass): 50%
pest or weed control at 62 g/ha (morningglory; 62 g ai/ha, preemergence, scale 0 (no effect) to 100 (complete control), read-out: Morningglory plant response rating): 95%
pest or weed control at 125 g/ha (morningglory; 125 g ai/ha, preemergence, scale 0 (no effect) to 100 (complete control), read-out: Morningglory plant response rating): 100%
pest or weed control at 250 g/ha (morningglory; 250 g ai/ha, preemergence, scale 0 (no effect) to 100 (complete control), read-out: Morningglory plant response rating): 100%
pest or weed control at 31 g/ha (morningglory; Preemergence, 31 g ai/ha, scale 0 to 100, 0 no effect, 100 complete control, read-out: Plant response rating, Morningglory): 55%
pest or weed control at 62 g/ha (large (Lg) crabgrass; 62 g ai/ha, preemergence, scale 0 (no effect) to 100 (complete control), read-out: Crabgrass, Large plant response rating): 100%
pest or weed control at 125 g/ha (large (Lg) crabgrass; 125 g ai/ha, preemergence, scale 0 (no effect) to 100 (complete control), read-out: Crabgrass, Large plant response rating): 100%
pest or weed control at 250 g/ha (large (Lg) crabgrass; 250 g ai/ha, preemergence, scale 0 (no effect) to 100 (complete control), read-out: Crabgrass, Large plant response rating): 100%
pest or weed control at 31 g/ha (large (Lg) crabgrass; Preemergence, 31 g ai/ha, scale 0 to 100, 0 no effect, 100 complete control, read-out: Plant response rating, Crabgrass, Large): 100%
pest or weed control at 62 g/ha (blackgrass; 62 g ai/ha): 85%
pest or weed control at 125 g/ha (blackgrass; 125 g ai/ha): 90%
pest or weed control at 250 g/ha (blackgrass; 250 g ai/ha): 90%
plant injury at 62 g/ha (oilseed rape; 62 g ai/ha, preemergence, scale 0 (no effect) to 100 (complete control), read-out: Oilseed Rape plant response rating): 100%
plant injury at 125 g/ha (oilseed rape; 125 g ai/ha, preemergence, scale 0 (no effect) to 100 (complete control), read-out: Oilseed Rape plant response rating): 100%
plant injury at 250 g/ha (oilseed rape; 250 g ai/ha, preemergence, scale 0 (no effect) to 100 (complete control), read-out: Oilseed Rape plant response rating): 100%
plant injury at 31 g/ha (oilseed rape; Preemergence, 31 g ai/ha, scale 0 to 100, 0 no effect, 100 complete control, read-out: Plant response rating, Oilseed Rape): 100%
pest or weed control at 62 g/ha (pigweed; 62 g ai/ha, preemergence, scale 0 (no effect) to 100 (complete control), read-out: Pigweed plant response rating): 100%
pest or weed control at 125 g/ha (pigweed; 125 g ai/ha, preemergence, scale 0 (no effect) to 100 (complete control), read-out: Pigweed plant response rating): 100%
pest or weed control at 250 g/ha (pigweed; 250 g ai/ha, preemergence, scale 0 (no effect) to 100 (complete control), read-out: Pigweed plant response rating): 100%
pest or weed control at 31 g/ha (pigweed; Preemergence, 31 g ai/ha, scale 0 to 100, 0 no effect, 100 complete control, read-out: Plant response rating, Pigweed): 100%
plant injury at 62 g/ha (soybean; 62 g ai/ha, preemergence, scale 0 (no effect) to 100 (complete control), read-out: Soybean plant response rating): 85%
plant injury at 125 g/ha (soybean; 125 g ai/ha, preemergence, scale 0 (no effect) to 100 (complete control), read-out: Soybean plant response rating): 90%
plant injury at 250 g/ha (soybean; 250 g ai/ha, preemergence, scale 0 (no effect) to 100 (complete control), read-out: Soybean plant response rating): 90%
plant injury at 31 g/ha (soybean; Preemergence, 31 g ai/ha, scale 0 to 100, 0 no effect, 100 complete control, read-out: Plant response rating, Soybean): 5%
